The results in this text go back to ChEMBL document CHEMBL3588781, “HPLC-NMR and HPLC-MS Profiling and Bioassay-Guided Identification of Secondary Metabolites from the Australian Plant Haemodorum spicatum” (2015).

Structures are written as SMILES. Calls of active or inactive are those of the source. The calls are words filed in the database; no cut-off is given here.

One test concerns Escherichia coli. Nature of the test: Antimicrobial activity against Escherichia coli ATCC 25922 assessed as microbial growth inhibition at 1 mg/ml incubated overnight at 37 degC. It counts as functional. As to conditions: for zone of inhibition at 1000 µg/mL: read-out: IZ.
Test [1] relates to Staphylococcus aureus. Nature of the test: Antimicrobial activity against Staphylococcus aureus ATCC 25923 assessed as microbial growth inhibition at 1 mg/ml incubated overnight at 37 degC. The test is classed as functional. As to conditions: for zone of inhibition at 1000 µg/mL: read-out: IZ.
In test [2] the test system is Staphylococcus aureus. Kind of test: Antimicrobial activity against methicillin-resistant Staphylococcus aureus 344/2-32 assessed as microbial growth inhibition at 1 mg/ml incubated overnight at 37 degC. The test is classed as functional. As to conditions: for zone of inhibition at 1000 µg/mL: read-out: IZ.
Another test concerns Pseudomonas aeruginosa. Kind of test: Antimicrobial activity against Pseudomonas aeruginosa ATCC 27853 assessed as microbial growth inhibition at 1 mg/ml incubated overnight at 37 degC. It counts as functional. The conditions noted are these: for zone of inhibition at 1000 µg/mL: read-out: IZ.
Another test relates to Streptococcus pyogenes. Nature of the test: Antimicrobial activity against Streptococcus pyogenes 345/1 assessed as microbial growth inhibition at 1 mg/ml incubated overnight at 37 degC. The test is classed as functional. As to conditions: for zone of inhibition at 1000 µg/mL: read-out: IZ.
A further test relates to Candida albicans. Kind of test: Antimicrobial activity against Candida albicans ATCC 10231 assessed as microbial growth inhibition at 1 mg/ml incubated overnight at 37 degC. It counts as functional, organism-based.

As to `COc1cc2ccc(=O)c3ccc4c5ccccc5oc1c4c23`, the “inhibition zone (IZ)” value in the test on Escherichia coli and in the test with Candida albicans was “inactive” in each case. Further, the zone of inhibition at 1000 µg/mL was determined as 1 mm with Staphylococcus aureus [1], 1 mm with Staphylococcus aureus [2], 3 mm in the test on Pseudomonas aeruginosa and 3 mm with Streptococcus pyogenes.
On to `COC(=O)Nc1nc2ccccc2[nH]1`, for which the “inhibition zone (IZ)” value with Candida albicans is “inactive”.
With `O=c1ccc2cc(O)c3oc4ccccc4c4ccc1c2c34`, the “inhibition zone (IZ)” value in the test on Escherichia coli, in the test with Staphylococcus aureus [1], with Staphylococcus aureus [2] and with Candida albicans was “inactive” in each case. In addition, the zone of inhibition at 1000 µg/mL worked out at 3 mm in the test with Pseudomonas aeruginosa and 1 mm with Streptococcus pyogenes.
Turning to `COC1OC(=O)c2ccc(-c3ccccc3)c3c(O)c(O)cc1c23` (stereo unspecified), the zone of inhibition at 1000 µg/mL in the test on Escherichia coli, in the test with Pseudomonas aeruginosa and in the test with Streptococcus pyogenes was 1 mm in each case. The “inhibition zone (IZ)” value with Staphylococcus aureus [1], with Staphylococcus aureus [2] and in the test with Candida albicans was “inactive” each time.
With `COc1cc2cc(OC)c3oc4ccccc4c4ccc(c1=O)c2c34`, the “inhibition zone (IZ)” value with Escherichia coli, in the test on Staphylococcus aureus [1], with Staphylococcus aureus [2] and in the test on Candida albicans was “inactive” each time. Further, the results for the zone of inhibition at 1000 µg/mL in the test with Pseudomonas aeruginosa and with Streptococcus pyogenes were 4 mm and 2 mm, respectively.
`COC1=Cc2cc(OC)c(OC)c3ccc(-c4ccccc4)c(c23)C1=O`: the zone of inhibition at 1000 µg/mL with Escherichia coli, with Staphylococcus aureus [2], in the test with Pseudomonas aeruginosa and in the test with Streptococcus pyogenes was 1 mm each time. The “inhibition zone (IZ)” value with Staphylococcus aureus [1] and in the test with Candida albicans was “inactive” in each case.
Consider `COC1=Cc2cc(=O)oc3ccc(-c4ccccc4)c(c23)C1=O`, for which the zone of inhibition at 1000 µg/mL in the test on Escherichia coli amounted to 1 mm. The “inhibition zone (IZ)” value in the test with Staphylococcus aureus [1], in the test with Staphylococcus aureus [2], in the test on Pseudomonas aeruginosa, with Streptococcus pyogenes and in the test on Candida albicans was “inactive” throughout.
As to `CC1(C)S[C@@H]2[C@H](NC(=O)[C@H](N)c3ccccc3)C(=O)N2[C@H]1C(=O)O` [AMPICILLIN], the “inhibition zone (IZ)” value in the test with Escherichia coli is “inactive”. Besides, the zone of inhibition at 1000 µg/mL in the test on Staphylococcus aureus [1] was determined as 15 mm; in the test on Staphylococcus aureus [2], 3 mm; in the test on Pseudomonas aeruginosa, 2 mm; in the test with Streptococcus pyogenes, 20 mm.
Consider `COc1cc(OC)c2ccc(-c3ccccc3)c3c2c1C=C(O)C3=O`, for which the zone of inhibition at 1000 µg/mL is 1 mm in the test with Escherichia coli; 1 mm in the test on Staphylococcus aureus [1]; 1 mm in the test on Staphylococcus aureus [2]; 5 mm in the test with Pseudomonas aeruginosa; 1 mm with Streptococcus pyogenes. Moreover, in the test with Candida albicans, the “inhibition zone (IZ)” value was “inactive”.
Consider `COC1=Cc2ccc(OC)c3ccc(-c4ccccc4)c(c23)C1=O`, for which the zone of inhibition at 1000 µg/mL in the test on Escherichia coli was determined as 1 mm; with Pseudomonas aeruginosa, 3 mm; in the test on Streptococcus pyogenes, 1 mm. For the same compound, the “inhibition zone (IZ)” value in the test with Staphylococcus aureus [1], in the test on Staphylococcus aureus [2] and in the test with Candida albicans was “inactive” in each case.
For the compound `COc1cc2cc(O)c3oc4ccccc4c4ccc(c1=O)c2c34`, the zone of inhibition at 1000 µg/mL came out at 1 mm in the test on Escherichia coli, 5 mm in the test on Pseudomonas aeruginosa and 2 mm in the test with Streptococcus pyogenes. Also, the “inhibition zone (IZ)” value with Staphylococcus aureus [1], with Staphylococcus aureus [2] and in the test on Candida albicans was “inactive” throughout.
Consider `COC1=Cc2cc(O)c(OC)c3ccc(-c4ccccc4)c(c23)C1=O`, for which the zone of inhibition at 1000 µg/mL in the test on Escherichia coli, in the test with Staphylococcus aureus [1], with Pseudomonas aeruginosa and in the test with Streptococcus pyogenes was 1 mm each time. The “inhibition zone (IZ)” value with Staphylococcus aureus [2] and with Candida albicans was “inactive” in each case.
